Read-outs that look alike come from different tables or passages of the source.
Experiments:
Assay type in all cases: in vivo
[1] = test system: Alopecurus myosuroides (ALOMY); test: Pre-emergence herbicidal action against ALOMY; conditions: scored visually after about 3 weeks, 100% = plants have died
Procedure, shortened: (§1)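 Dosages of 320 g/ha or less; pre-emergence; WP or EC in aqueous spray, 0.5% additive, 600 l/ha; greenhouse; visual % effect after ~3 wk relative to control pots.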

[2] = test system: Amaranthus retroflexus (AMARE); test: Pre-emergence herbicidal action against AMARE; conditions: visual scoring after about 3 weeks vs untreated controls
Procedure, shortened: as §1

[3] = test system: Avena fatua (AVEFA); test: Pre-emergence herbicidal action against AVEFA; conditions: visual scoring after about 3 weeks vs untreated controls
Procedure, shortened: as §1

[4] = test system: Digitaria sanguinalis (DIGSA); test: Pre-emergence herbicidal action against DIGSA
Procedure, shortened: as §1

[5] = test system: Echinochloa crus-galli (ECHCG); test: Pre-emergence herbicidal action against ECHCG; conditions: dosage 320 g/ha
Procedure, shortened: as §1

[6] = test system: Lolium rigidum (LOLRI); test: Pre-emergence herbicidal action against LOLRI
Procedure, shortened: as §1

[7] = test system: Matricaria inodora (MATIN); test: Pre-emergence herbicidal action against MATIN; conditions: dosage 320 g/ha
Procedure, shortened: as §1

[8] = test system: Pharbitis purpurea (PHBPU); test: Pre-emergence herbicidal action against PHBPU; conditions: dosage 320 g/ha
Procedure, shortened: as §1

[9] = test system: Polygonum convolvulus (POLCO); test: Pre-emergence herbicidal action against POLCO
Procedure, shortened: as §1

[10] = test system: Setaria viridis (SETVI); test: Pre-emergence herbicidal action against SETVI
Procedure, shortened: as §1

[11] = test system: Verconica persica (VERPE); test: Pre-emergence herbicidal action against VERPE; conditions: dosage 320 g/ha
Procedure, shortened: as §1

[12] = test system: Viola tricolor (VIOTR); test: Pre-emergence herbicidal action against VIOTR
Procedure, shortened: as §1

[13] = test system: Zea mays (ZEAMX); conditions: pre-emergence, 80 g/ha, crop plant compatibility, in comparison to untreated controls
Procedure, shortened: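 Crop injury rated visually in percent against untreated plants roughly 3 weeks after treatment (0% no effect, 100% plants dead). Compounds, as WP or EC with 0.5% additive in 600 l/ha water, were applied to the covering soil right after sowing; greenhouse growth. Suffixes a, b, c denote different dosages.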

[14] = test system: Alopecurus myosuroides (ALOMY); test: Post-emergence herbicidal action against ALOMY; conditions: 80 g/ha, visual rating about 3 weeks after treatment vs untreated controls (100% = plants have died, 0% = like control plants)
Procedure, shortened: (§2)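 Greenhouse plants sprayed at the one-leaf stage, 2–3 weeks after sowing, with WP or EC formulations plus 0.5% additive at 600 l/ha water. Activity rated visually after about 3 weeks versus untreated controls (100% = dead, 0% = like control), at 320 g/ha or lower.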

[15] = test system: Digitaria sanguinalis (DIGSA); test: Post-emergence herbicidal action against DIGSA; conditions: 80 g/ha, visual rating about 3 weeks after treatment
Procedure, shortened: as §2

[16] = test system: Echinochloa crus-galli (ECHCG); test: Post-emergence herbicidal action against ECHCG; conditions: dosage 80 g/ha
Procedure, shortened: as §2

[17] = test system: Matricaria inodora (MATIN); test: Post-emergence herbicidal action against MATIN
Procedure, shortened: as §2

[18] = test system: Viola tricolor (VIOTR); test: Post-emergence herbicidal action against VIOTR
Procedure, shortened: as §2

[19] = test system: Zea mays (ZEAMX); conditions: for Post-emergence action against ZEAMX in % (crop plant compatibility): 20 g/ha, effect in comparison to untreated controls; for Post-emergence action against ZEAMX in %: crop plant compatibility, 80 g/ha, effect vs untreated controls
Procedure, shortened: (§3)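 Visual rating (% effect vs. untreated plants; 100% = plant death) made about 3 weeks after treatment. Plants had been sprayed at one-leaf stage, 2–3 weeks post-sowing, with aqueous WP/EC preparations containing 0.5% additive, 600 l/ha water volume; a, b, c mark dose levels.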

[20] = test system: Amaranthus retroflexus (AMARE); test: Post-emergence herbicidal action against AMARE
Procedure, shortened: as §2

[21] = test system: Verconica persica (VERPE); test: Post-emergence herbicidal action against VERPE; conditions: 320 g/ha, VERPE
Procedure, shortened: as §2

[22] = test system: Oryza sativa (ORYSA); conditions: crop plant compatibility
Procedure, shortened: as §3

[23] = test system: Triticum aestivum (TRZAS); conditions: crop plant compatibility, 80 g/ha, effect vs untreated controls
Procedure, shortened: as §3

[24] = test system: Abutilon theophrasti (ABUTH); test: Post-emergence herbicidal action against ABUTH; conditions: 80 g/ha, visual rating about 3 weeks after treatment vs untreated controls (100% = plants have died, 0% = like control plants)
Procedure, shortened: as §2

[25] = test system: Avena fatua (AVEFA); test: Post-emergence herbicidal action against AVEFA; conditions: 80 g/ha, visual rating about 3 weeks after treatment
Procedure, shortened: as §2

[26] = test system: Lolium rigidum (LOLRI); test: Post-emergence herbicidal action against LOLRI; conditions: dosage 80 g/ha
Procedure, shortened: as §2

[27] = test system: Pharbitis purpurea (PHBPU); test: Post-emergence herbicidal action against PHBPU; conditions: dosage 80 g/ha
Procedure, shortened: as §2

[28] = test system: Polygonum convolvulus (POLCO); test: Post-emergence herbicidal action against POLCO; conditions: dosage 80 g/ha
Procedure, shortened: as §2

[29] = test system: Setaria viridis (SETVI); test: Post-emergence herbicidal action against SETVI; conditions: dosage 80 g/ha
Procedure, shortened: as §2

[30] = 80 g/ha, visual scoring after about 3 weeks vs untreated controls
[31] = 80 g/ha, effect in comparison to untreated controls

Structure (SMILES) | Pre-emergence action against ALOMY ([1]; 80 g/ha) | Pre-emergence action against ALOMY ([1]; 320 g/ha) | Pre-emergence action against AMARE in % ([2]; 80 g/ha) | Pre-emergence action against AMARE in % ([2]; 320 g/ha) | Pre-emergence action against AVEFA in % ([3]; 320 g/ha) | Pre-emergence action against DIGSA in % [4, 30] | Pre-emergence action against DIGSA in % ([4]; dosage 320 g/ha) | Pre-emergence action against ECHCG in % [5] | Pre-emergence action against LOLRI in % ([6]; dosage 320 g/ha) | Pre-emergence action against MATIN in % [7] | Pre-emergence action against PHBPU in % [8] | Pre-emergence action against POLCO in % ([9]; dosage 80 g/ha) | Pre-emergence action against POLCO in % ([9]; dosage 320 g/ha) | Pre-emergence action against SETVI in % ([10]; dosage 80 g/ha) | Pre-emergence action against SETVI in % ([10]; dosage 320 g/ha) | Pre-emergence action against VERPE in % [11] | Pre-emergence action against VIOTR in % ([12]; 320 g/ha, Viola tricolor) | Pre-emergence action against VIOTR in % ([12]; dosage 80 g/ha) | Pre-emergence action against ZEAMX in % [13] | Post-emergence action against ALOMY in % [14] | also measured
N#CCOC(=O)COc1nn(-c2ncccc2F)c(-c2ccc(F)nc2)c1Br [Example I-30] | 100% | 100% | 100% | 100% | 100% | 100% | 100% | 100% | 100% | 90% | 90% | 80% | 90% | 90% | 100% | 90% | 100% | 90% | 10% | 90% | Pre-emergence action against LOLRI in % ([6]; dosage 80 g/ha): 90%; Post-emergence action against DIGSA in % [15]: 90%; Post-emergence action against ECHCG in % [16]: 80%; Post-emergence action against MATIN in % ([17]; dosage 80 g/ha): 90%; Post-emergence action against VIOTR in % ([18]; 80 g/ha): 80%; Post-emergence action against ZEAMX in % (crop plant compatibility) [19]: 20%; Post-emergence action against ZEAMX in % [19]: 20%
COC(=O)CCOC(=O)COc1nn(-c2ccccn2)c(-c2ccc(Cl)nc2)c1Cl [Example I-243] |  |  | 80% | 90% |  |  | 80% |  |  |  |  |  |  |  |  |  |  |  | 10% |  | Post-emergence action against AMARE in % ([20]; 320 g/ha, visual rating about 3 weeks after treatment): 80%; Post-emergence action against MATIN in % ([17]; dosage 320 g/ha): 80%; Post-emergence action against VERPE in % [21]: 80%; Post-emergence action against VIOTR in % ([18]; 320 g/ha): 80%; Post-emergence action against ORYSA in % [22, 31]: 0%; Post-emergence action against ORYSA in % ([22]; 320 g/ha, effect in comparison to untreated controls): 10%; Post-emergence action against TRZAS in % [23]: 20%; Post-emergence action against ZEAMX in % [19]: 0%
COC(=O)[C@@H](C)Oc1nn(-c2ccccn2)c(-c2ccnc(F)c2)c1Cl [Example I-19] | 100% | 100% | 100% | 100% | 100% | 100% | 100% | 100% | 100% | 90% | 90% | 90% | 100% | 100% | 100% | 100% | 100% | 100% | 0% | 100% | Pre-emergence action against AVEFA in % ([3]; 80 g/ha): 80%; Post-emergence action against ABUTH in % [24]: 80%; Post-emergence action against AMARE in % ([20]; 80 g/ha, visual rating about 3 weeks after treatment vs untreated controls (100% = plants have died, 0% = like control plants)): 80%; Post-emergence action against AVEFA in % [25]: 90%; Post-emergence action against DIGSA in % [15]: 80%; Post-emergence action against LOLRI in % [26]: 80%; Post-emergence action against PHBPU in % [27]: 90%; Post-emergence action against POLCO in % [28]: 90%; Post-emergence action against SETVI in % [29]: 80%; Post-emergence action against VIOTR in % ([18]; 80 g/ha): 90%; Post-emergence action against ORYSA in % ([22]; 20 g/ha, effect vs untreated controls): 0%; Post-emergence action against ORYSA in % [22, 31]: 0%; Post-emergence action against ZEAMX in % (crop plant compatibility) [19]: 0%

Source: US20240041042A1, “1-(PYRIDYL)-5-AZINYLPYRAZOLE DERIVATIVES, AND THEIR USE FOR CONTROL OF UNDESIRED PLANT GROWTH” (Bayer Aktiengesellschaft, priority 2020, published 2024)
